Experimental data as given in article PMC10537280, “Chemo-/Regio-Selective Synthesis of Novel Functionalized Spiro[pyrrolidine-2,3′-oxindoles] under Microwave Irradiation and Their Anticancer Activity” (Molecules, 2023).
Like-named read-outs stand apart in the source and are kept apart here.

Legend:
[1] = system: immortalized liver LO2 normal cell lines; test: MTT cytotoxicity assay, normal liver LO2 cells; format: cell-based; settings: Homo sapiens, L02; MTT, 72 h, 0.19–100 μM; normal liver cells; read-out: LO2 Cells IC50
Method: (§1) Adenocarcinomic human alveolar basal epithelial (A549) and human hepatoma (HepG2) cancer cell lines, immortalized normal human liver (LO2), human bronchial epithelial (BEAS-2B cells were purchased from [NT], Manassas, VA, USA). […] Invitrogen, Waltham, MA, USA). All cells were incubated at 37 °C in a 5% humidified CO2 incubator). All test compounds were dissolved in DMSO at a final concentration of 50 mM and stored at -20 °C before use. Cytotoxicity was assessed by the MTT (5 mg/mL) assay, as described previously. Briefly, 5 × 10^3 cells per well were seeded in 96-well plates before drug treatments. […] Cells without drug treatment were used as controls. Subsequently, 10 μL of 5 mg/mL MTT solution was added to each well and incubated at 37 °C for 4 h, followed by the addition of 100 μL solubilization buffer (12 mM HCl in a solution of 10% SDS) and overnight incubation. The absorbance, A570 nm, was then determined in each well on the next day. The percentage of cell viability was calculated using the expression: % viability = Atreated/Acontrol × 100, and was given as cytotoxicity (Table 2 and Table 3; […]

[2] = system: human lung A549 cancer cell lines; test: MTT cytotoxicity assay, lung cancer A549 cells; format: cell-based; settings: for IC50: Homo sapiens, A549, MTT, 72 h, 0.19–100 μM, means of at least three independent experiments in duplicates, read-out: A549 Cells IC50
Method: as §1

[3] = system: immortalized lung BEAS-2B normal cell lines; test: MTT cytotoxicity assay, normal lung BEAS-2B cells; format: cell-based; settings: Homo sapiens, MTT, 72 h, 0.19–100 μM, normal lung cells, read-out: BEAS-2B Cells IC50
Method: as §1

[4] = system: human HepG2 cancer cell lines; test: MTT cytotoxicity assay, liver cancer HepG2 cells; format: cell-based; settings: for IC50: MTT, 72 h, 0.19–100 μM, means of at least three independent experiments in duplicates, read-out: HepG2 Cells IC50; for S.I. Selectivity index liver (IC50 normal cells/IC50 cancer cells): LO2 IC50 / HepG2 IC50
Method: as §1

[5] = system: immortalized liver LO2 normal cell lines; settings: paclitaxel reference value; ref [82]; read-out: LO2 Cells IC50; cited from earlier work
[6] = system: immortalized lung BEAS-2B normal cell lines; set-up: method as in PMID 24063429; settings: paclitaxel reference value; ref [80]; read-out: BEAS-2B Cells IC50; cited from earlier work
[7] = system: human HepG2 cancer cell lines; settings: paclitaxel reference value; ref [82]; read-out: HepG2 Cells IC50; cited from earlier work
[8] = system: human lung A549 cancer cell lines; set-up: method as in PMID 24063429; settings: paclitaxel reference value; ref [80]; read-out: A549 Cells IC50; cited from earlier work

Structure (SMILES) | IC50 [1] | melting point | IC50 [2] | IC50 [3] | IC50 ([4]; Homo sapiens, HepG2, 72 h) | S.I. Selectivity index liver (IC50 normal cells/IC50 cancer cells) [4] | IC50 [4] | S.I. Selectivity index lung (IC50 normal cells/IC50 cancer cells) ([2]; BEAS-2B IC50 / A549 IC50) | IC50 [5] | IC50 [6] | IC50 [7] | IC50 [8]
COc1ccc(C2C([N+](=O)[O-])C3CCCN3C23C(=O)Nc2ccccc23)cc1OCc1ccccc1 (stereo not drawn) [Compound 4p, 2′-(3-(benzyloxy)-4-methoxyphenyl)-1′-nitro-1′,2′,5′,6′,7′,7a′-hexahydrospiro[indoline-3,3′-pyrrolizin]-2-one] | > 100 µM | 83 to 85 °C | > 100 µM | > 100 µM | > 100 µM | – | – | – | – | – | – | –
COc1ccc(C2C([N+](=O)[O-])C3CCCN3C23C(=O)Nc2ccc(Br)cc23)cc1OCc1ccccc1 (stereo not drawn) [Compound 4q, 2′-(3-(benzyloxy)-4-methoxyphenyl)-5-bromo-1′-nitro-1′,2′,5′,6′,7′,7a′-hexahydrospiro[indoline-3,3′-pyrrolizin]-2-one] | 46.8 µM | 98 to 100 °C | 47.9 µM | > 100 µM | 85.6 µM | 0.54 | 86.5 µM | – | – | – | – | –
COc1ccc(C2C([N+](=O)[O-])C3CCCN3C23C(=O)Nc2ccccc23)cc1 (stereo not drawn) [Compound 4r, 2′-(4-methoxyphenyl)-1′-nitro-1′,2′,5′,6′,7′,7a′-hexahydrospiro[indoline-3,3′-pyrrolizin]-2-one] | > 100 µM | 116 to 118 °C | > 100 µM | > 100 µM | > 100 µM | – | – | – | – | – | – | –
COc1ccc(OC)c(C2C([N+](=O)[O-])C3CCCN3C23C(=O)Nc2ccccc23)c1 (stereo not drawn) [Compound 4s, 2′-(2,5-dimethoxyphenyl)-1′-nitro-1′,2′,5′,6′,7′,7a′-hexahydrospiro[indoline-3,3′-pyrrolizin]-2-one] | > 100 µM | 174 to 176 °C | > 100 µM | > 100 µM | > 100 µM | – | – | – | – | – | – | –
COc1cccc(C2C([N+](=O)[O-])C3CCCN3C23C(=O)Nc2ccc(Br)cc23)c1 (stereo not drawn) [Compound 4t, 5-bromo-2′-(3-methoxyphenyl)-1′-nitro-1′,2′,5′,6′,7′,7a′-hexahydrospiro[indoline-3,3′-pyrrolizin]-2-one] | 45.5 µM | 145 to 147 °C | 45.2 µM | 67.7 µM | 46.1 µM | 0.99 | – | 1.50 | – | – | – | –
COc1ccc(OC)c(C2C([N+](=O)[O-])C3CCCN3C23C(=O)Nc2ccc(Br)cc23)c1 (stereo not drawn) [Compound 4u, 5-bromo-2′-(2,5-dimethoxyphenyl)-1′-nitro-1′,2′,5′,6′,7′,7a′-hexahydrospiro[indoline-3,3′-pyrrolizin]-2-one] | > 100 µM | 190 to 192 °C | > 100 µM | > 100 µM | > 100 µM | – | – | – | – | – | – | –
COc1ccc(C2C([N+](=O)[O-])C3CCCN3C23C(=O)Nc2ccccc23)cc1OC (stereo not drawn) [Compound 4v, 2′-(3,4-dimethoxyphenyl)-1′-nitro-1′,2′,5′,6′,7′,7a′-hexahydrospiro[indoline-3,3′-pyrrolizin]-2-one] | > 100 µM | 175 to 177 °C | > 100 µM | > 100 µM | > 100 µM | – | – | – | – | – | – | –
COc1ccc(C2C([N+](=O)[O-])C3CCCN3C23C(=O)Nc2ccc(Br)cc23)cc1OC (stereo not drawn) [Compound 4w, 5-bromo-2′-(3,4-dimethoxyphenyl)-1′-nitro-1′,2′,5′,6′,7′,7a′-hexahydrospiro [indoline-3,3′-pyrrolizin]-2-one] | > 100 µM | 195 to 197 °C | > 100 µM | > 100 µM | > 100 µM | – | – | – | – | – | – | –
CC(=O)O[C@H]1C(=O)[C@@]2(C)[C@H]([C@H](OC(=O)c3ccccc3)[C@]3(O)C[C@H](OC(=O)[C@H](O)[C@@H](NC(=O)c4ccccc4)c4ccccc4)C(C)=C1C3(C)C)[C@]1(OC(C)=O)CO[C@@H]1C[C@@H]2O [Paclitaxel] | – | – | – | – | – | – | – | – | < 100 nM | 100 nM | 190 ± 400 nM | 3 nM
